Measurements from patent US20230041271A1, “Mitochondria-Targeted Polypeptide, Preparation Method thereof, and Use thereof” (Shenzhen Campus of Sun Yat-sen University, priority 2021, published 2023).
Square brackets hold non-standard residues; d marks the D form. Peptide text beside a SMILES is read from it. * marks the point of attachment. X2 = COc1cccc2c1C(=O)c1c(O)c3c(c(O)c1C2=O)C[C@@](O)(C(=O)CO)C[C@@H]3O[C@H]1C[C@H](NC(=O)OCCSSCCOC(=O)*)[C@H](O)[C@H](C)O1; 2Nal = N[C@@H](Cc1ccc2ccccc2c1)C(=O)O; d2Nal = N[C@H](Cc1ccc2ccccc2c1)C(=O)O; X1 = O=C1NC2CS[C@@H](CCCCC(=O)*)C2N1

What was measured:
[1] = test system: mitochondria of HeLa cells; experiment: Mitochondrial co-localization confocal imaging with MitoTracker Deep Red; assay type: cell-based; conditions: for co-localization coefficient with the commercial mitochondrial dye (MitoTracker Deep Red): HeLa cells, confocal imaging, 50 nM MitoTracker Deep Red
Protocol: The synthesized mitochondria-targeted fluorescent probes were analyzed by confocal imaging to detect the effect of the arginine number on the mitochondrial localization thereof.
Experimental method: Solid powders of mitochondria-targeted fluorescent probes 8-12 synthesized in Example 3 were dissolved in DMSO to prepare 2 mM test mother solutions, and HeLa cells were cultured in a culture medium (DMEM: FBS: penicillin-streptomycin dual antibody=9:1:0.1). The cells were inoculated in an 8-well imaging dish and cultured in a cell incubator containing 5% CO2 at 37° C. until the cell density reached 60%. After the culture medium was removed, the cells were incubated with the target compound for a specified time. The culture medium was then removed, and wash with PBS was conducted three times. Thereafter, 50 nM commercial mitochondrial probe MitoTracker Deep Red (50 nM) was further added to the culture dish for 15 minutes of continuous incubation. After the culture medium was removed, wash with PBS was conducted three times. Imaging on confocal microscope was then carried out. Blue channel tracker 1 was set, with the excitation wavelength being 405 nm and the emission band being 420-490 nm, and this channel was used to receive fluorescence emitted by the mitochondria-targeted peptide. Red channel tracker 2 was set, with the excitation wavelength being 640 nm and the emission band being 655-755 nm, and this channel was used to receive fluorescence emitted by MitoTracker Deep Red, a commercial mitochondrial dye. In addition, in a cell imaging experiment, green channel tracker 3 was set, with the excitation wavelength being 560 nm and the emission band being 580-620 nm, and this channel was used to receive fluorescence emitted by compound 13. Green channel tracker 4 was set, with the excitation wavelength being 488 nm and the emission band being 500-600 nm, and this channel was used to receive fluorescence emitted by compound 14.

[2] = Drug release and stability test of prodrug 17 in PBS solution with or without GSH (fluorescence, HPLC, ESI-MS); assay type: physicochemical
Protocol: Prodrug 17 (5 mM stock solution in DMSO) was diluted with PBS to form a solution at an indicated concentration and then incubated at 37° C. with a glutathione (GSH) solution at a specified concentration (0-12 mM GSH for concentration-dependent study and 10 mM GSH for time-dependent study), and the fluorescence of the treated sample was monitored periodically at specific time points. The change in the fluorescence intensity of the sample reflected the drug release behavior of prodrug 17 under GSH activation. In addition, a chromatogram was detected by high performance liquid chromatography after co-incubation of prodrug 17 (20 μM) with GSH (10 mM) in a PBS solution at 37° C. for 6 h, and a mass spectrum of the reaction solution was detected by ESI-MS.

[3] = test system: Hela cells; experiment: Drug release test of prodrug 17 in cells (fluorescence imaging); assay type: cell-based; conditions: for localization in the cells: HeLa cells
Protocol: Hela cells were cultured in an 8-well imaging dish and then treated with prodrug 17 (1 μM) for a certain time (1 h, 2 h, 3 h and 5 h). After the culture medium was removed, the cells were washed with PBS, a fresh culture medium was used for replacement, and the treated cells were then photographed by a fluorescence microscope. In addition, the cells were directly co-incubated with compound 17 (1 μM) for 1 h and then incubated with exogenous GSH (2 mM) for another 1 h (totally 2 h of incubation with compound 17); the cells were pretreated with the GSH inhibitor BSO (5 mM) for 24 h and then incubated with compound 17 (1 μM) for 3 h; and the cells were pre-incubated with a tumor-targeted biotin ligand at various concentrations (1 mM or 2 mM) for 1 h and then co-incubated with compound 17 for 3 h. After the culture medium was removed, the cells were washed with PBS, a fresh culture medium was used for replacement, and a fluorescence microscope was then used to take an image, which was used as the control.

[4] = test system: HeLa tumor cells; experiment: Cytotoxicity test (MTT) on tumor cells; assay type: cell-based; conditions: various concentrations, 48 h
Protocol: (§1) Cells were inoculated in a 96-well plate and cultured overnight in a cell incubator containing 5% CO2 at 37° C. The cells were treated with prodrug 17 at various concentrations and cultured in a cell incubator containing 5% CO2 at 37° C. for 48 h. A commercial MTT assay kit was then used to measure the cell viability. The experiment was repeated three times, and the data were analyzed by GraphPad Prism 6.0 software.

[5] = test system: normal CHO cells; experiment: Cytotoxicity test (MTT) on normal cells; assay type: cell-based; conditions: various concentrations, 48 h
Protocol: as §1

[6] = test system: Hela cells; experiment: Determination of mitochondrial membrane potential MMP (JC-10 dye); assay type: cell-based; conditions: 0-10 μM, 24 hours
Protocol: Cells were inoculated in a 384-well plate with a black transparent bottom and then cultured overnight in a cell incubator containing 5% CO2 at 37° C., and the cells were treated with prodrug 17 at a specified concentration for 24 hours. An MMP kit (JC-10 dye, MAK-160) was then used for treatment and measurement according to the test method as provided, wherein apoptotic/damaged cells were monitored using λex=490 nm and λem=525 nm, and normal cells were monitored using λex=540 nm and λem=590 nm.

[7] = test system: Hela cells; experiment: Apoptosis detection (Annexin V-PE, flow cytometry); assay type: cell-based; conditions: various concentrations, 24 h
Protocol: Cells were inoculated in a 35 mm culture dish. After culture overnight at 37° C., the cells were treated with prodrug 17 at a specified concentration for 24 h. The cells were then collected, rinsed with PBS, resuspended in 500 μL of 1×buffer, and quantitatively measured by a flow cytometer according to a method given by the apoptosis kit Annexin V-PE.

Q: With “Ac-Arg-Arg-Arg-Arg-Arg-L-Nal-D-Nal-Gly-Gly-Lys [MTPS]” as the molecule, how does the “co-localization coefficient with the commercial mitochondrial dye (MitoTracker Deep Red)” value [1] read?
A: 0.54

Q: For COc1cccc2c1C(=O)c1c(O)c3c(c(O)c1C2=O)C[C@@](O)(C(=O)CO)C[C@@H]3O[C@H]1C[C@H](NC(=O)OCCSSCCOC(=O)NCCCC[C@H](NC(=O)CNC(=O)CNC(=O)[C@@H](Cc2ccc3ccccc3c2)NC(=O)[C@H](Cc2ccc3ccccc3c2)NC(=O)[C@H](CCCNC(=N)N)NC(=O)[C@H](CCCNC(=N)N)NC(=O)[C@H](CCCNC(=N)N)NC(=O)CCCC[C@@H]2SCC3NC(=O)NC32)C(N)=O)[C@H](O)[C@H](C)O1 (some centres unmarked) [prodrug 17] (X1-RRR[2Nal][d2Nal]GGK(X2)-NH2), which “mitochondrial targeting (co-localization imaging)” value ([1]; 1 μM in HeLa cells) is on record?
A: excellent mitochondrial targeting properties

Q: And the “time at which fluorescence (drug release) reached the maximum value” ([2]; 37° C., 10 mM GSH, PBS)?
A: about 8 hours

Q: What about the “stability in PBS solution” value ([2]; PBS solution at 37° C. for 7 days, HPLC) of the same molecule?
A: no obvious compound degradation

Q: And the “GSH-responsive release detected by HPLC and ESI-MS” value ([2]; prodrug 20 μM, GSH 10 mM, PBS, 37° C., 6 h)?
A: released Dox and mitochondria-targeted peptide 16 could be clearly detected

Q: What about the “uptake by and release in HeLa cells” value ([3]; 1 μM, 1-5 h, fluorescence imaging) of the same molecule?
A: slowly taken up

Q: What about the “cell fluorescence after pre-incubation with the GSH inhibitor BSO” value ([3]; BSO 5 mM 24 h, then 1 μM for 3 h) of the same molecule?
A: almost no fluorescence

Q: What about the “localization in the cells” value ([3]; 1 μM, fluorescence imaging) of the same molecule?
A: mainly located in mitochondria

Q: What about the “anti-tumor activity (cell viability of HeLa cells)” value [4] of the same molecule?
A: strong anti-tumor activity

Q: What about the “toxicity to normal cells (CHO cells)” value [5] of the same molecule?
A: almost no toxicity

Q: And the “mitochondrial membrane potential change” value [6]?
A: remarkable reduction in mitochondrial membrane potential

Q: And the induction of apoptosis [7]?
A: induce cell death through cell apoptosis

Q: Which “co-localization coefficient with the commercial mitochondrial dye (MitoTracker Deep Red)” value [1] does the source give for “Ac-Arg-Arg-Arg-L-Nal-D-Nal-Gly-Gly-Lys [MTP3]” here?
A: 0.84

Q: What about the “co-localization coefficient with the commercial fluorescent probe after long co-incubation” value ([1]; after co-incubation with cells for up to 36 h) of the same molecule?
A: 0.70

Q: Which “localization in the cells” value ([3]; 1 μM, fluorescence imaging) does the source give for COc1cccc2c1C(=O)c1c(O)c3c(c(O)c1C2=O)C[C@@](O)(C(=O)CO)C[C@@H]3O[C@H]1C[C@H](N)[C@H](O)[C@H](C)O1 [Dox, doxorubicin, reference compound] here?
A: mainly located in the nucleus

Q: Which “co-localization coefficient with the commercial mitochondrial dye (MitoTracker Deep Red)” value [1] does the source give for “Ac-Arg-Arg-Arg-Arg-L-Nal-D-Nal-Gly-Gly-Lys [MTP4]” here?
A: 0.68

Q: Which “co-localization coefficient with the commercial mitochondrial dye (MitoTracker Deep Red)” value [1] does the source give for “Ac-Arg-Arg-L-Nal-D-Nal-Gly-Gly-Lys [MTP2]” here?
A: 0.65
